Data as given in patent US20250281476A1, “EFINACONAZOLE ORAL COMPOSITION” (priority 2020, published 2025).
≈ marks a conversion by molar mass, not a printed value. Where two headings read alike, the source gives them in different places. Blank lines part the entries; values can stand above or below the compound they belong to.

Experiments:
[1] = cited from earlier work
in vivo = settings: for AUC(0-t): AUCt; for concentration at 0.5 h: read-out: Blood voriconazole concentration, Time 0.5 hr; for concentration at 1 h: read-out: Blood voriconazole concentration, Time 1 hr; for concentration at 2 h: read-out: Blood voriconazole concentration, Time 2 hr; for concentration at 4 h: read-out: Blood voriconazole concentration, Time 4 hr; for concentration at 6 h: read-out: Blood voriconazole concentration, Time 6 hr; for concentration at 8 h: read-out: Blood voriconazole concentration, Time 8 hr; for concentration at 10 h: read-out: Blood voriconazole concentration, Time 10 hr
Method: 24 male beagle dogs were divided into 4 groups, 6 animals per group. Voriconazole as a control drug was once administered to the animals via an oral route under fasting conditions. Efinaconazole as a test drug was once administered to the animals via intravenous and oral routes under fasting conditions. Thereafter, the pharmacokinetic (PK) profiles of the drugs were determined to calculate PK parameters of the drugs and evaluate the pharmacokinetics of the drugs. Specific test conditions and methods are as follows.
The test substances were weighed with an electronic balance. Each of the weighed test substances was placed in a glass container and 0.5% methylcellulose in a 1% Tween 80 solution (distilled water) as an excipient was added thereto. The mixture was vortexed and sonicated to prepare a homogeneous test material.
For intravenous administration, the doses of efinaconazole (intravenous administration group G1) were calculated based on the body weights of the animals. To the test substance was added PEG400 as an excipient whose volume corresponded to 30% of the total volume of a final test material. The mixture was vortexed and sonicated for complete dissolution. To the solution was added ethanol in an amount corresponding to 20% of the total volume of the test material, followed by homogenization by sonication. Then, 0.9% saline was added in an amount corresponding to 50% of the total volume of the test material, followed by vortexing and sonication to in situ prepare the test material in a homogeneous state.
• Routes of administration: Intravenous (IV) and oral (PO) • Doses: G1 (Voriconazole)—6 mg/5 ml/kg (PO); G2 (Efinaconazole)—6 mg/5 ml/kg (PO); G3 (Efinaconazole-Polymer)—6 mg/5 ml/kg (PO); G1 (Efinaconazole)—0.5 mg/I ml/kg (IV) • Frequency of administration: Single dose (once daily)—(QD)
4 ml of blood was collected from each point and centrifuged. 500 μl of the plasma supernatant was dispensed in a 1.5 ml EP tube and the remaining plasma was dispensed into a set of 1.5 ml EP tubes. The samples were stored in a deep freezer at −80° C. After completion of the testing, the blood collection records, sample information certificates, dispensing records, clinical symptom observation records, medication/blood collection results, and test samples (plasma samples) were sent to a specialized analysis agency.
After storage in a freezer, the samples were analyzed by LC/MS/MS and their pharmacokinetic parameters were calculated in a noncompartmental manner using “Phoenix WinNonlin (Version 8.2 or higher, Certara L. P)” software.
AUCt, a bioavailability parameter, is the area under the plasma concentration-time curve from the time of administration medication to the last time point of blood collection with a measurable concentration and was calculated by the trapezoidal formula. Cmax is the highest plasma drug concentration read from the plasma drug concentration-time curve of each sample and Tmax is the time taken to reach the highest plasma drug concentration read from the plasma drug concentration-time curve of each sample. AUC∞ is the area under the plasma concentration-time curve from the time of administration to time infinity.

[2] = Stability test of 10% solutions at room temperature and 65° C., purity by HPLC; type: physicochemical; settings: solution (10%)
Method: The stability of the co-crystal of efinaconazole to temperature and a solution was evaluated and compared with that of efinaconazole by the following experimental method.
A co-crystalline form of efinaconazole was prepared.

[3] = male, beagle, dog, in vivo, 0.5 mg/kg, Blood efinaconazole concentration, Time 12 hr
[4] = male, beagle, dog, in vivo, 6 mg/kg, Geometric Means
[5] = male, beagle, dog, in vivo, po, 6 mg/kg, Cmax
[6] = male, beagle, dog, in vivo, po, 6 mg/kg, Geometric Means
[7] = male, beagle, dog, in vivo, po, 6 mg/kg, Geometric Means, Cmax
[8] = male, dog, in vivo, 6 mg/kg, beagle dog, fasting, single 6 mg/kg P.O, group Mean (6 animals)
[9] = male, dog, in vivo, 6 mg/kg, beagle dog, fasting, single 6 mg/kg P.O, individual animals

SMILES: C=C1CCN([C@H](C)[C@](O)(Cn2cncn2)c2ccc(F)cc2F)CC1 [Efinaconazole]
- water solubility [1]: ~610 µg/mL (≈ 1750 µM)
- Blood efinaconazole concentration, Time 8 hr (in vivo; dog, in vivo, 0.5 mg/kg): BLQ
- Blood efinaconazole concentration, Time 10 hr (in vivo; dog, in vivo, 0.5 mg/kg): BLQ
- Blood efinaconazole concentration, Time 12 hr (in vivo; dog, in vivo, 0.5 mg/kg): BLQ
- Blood efinaconazole concentration, Time 24 hr (in vivo; dog, in vivo, 0.5 mg/kg): BLQ
- bioavailability compared with other antifungals when administered orally (in vivo; dog, in vivo, po): higher than those of other antifungals, including voriconazole and itraconazole
- concentration at 0.053 h (in vivo; male, beagle, dog, in vivo, 0.5 mg/kg, Blood efinaconazole concentration, Time 0.053 hr): 262 ng/mL
- concentration at 0.25 h (in vivo; male, beagle, dog, in vivo, 0.5 mg/kg, Blood efinaconazole concentration, Time 0.25 hr): 168 ng/mL
- concentration at 12 h (in vivo; [3]): 1.36 ng/mL
- concentration at 12 hr (in vivo; [3]): 3.52 ng/mL
- concentration at 24 h (in vivo; male, beagle, dog, in vivo, 0.5 mg/kg, Blood efinaconazole concentration, Time 24 hr): 0 ng/mL
- AUC(0-t) (in vivo; male, beagle, dog, in vivo, 0.5 mg/kg, Geometric Means): 245 ng·h/mL
- Cmax (in vivo; male, beagle, dog, in vivo, 0.5 mg/kg, Geometric Means, Cmax): 318 ng/mL
- bioavailability (in vivo; male, beagle, dog, in vivo, 6 mg/kg): 51.4 ± 24.6%
- concentration at 2 hr (in vivo; male, beagle, dog, in vivo, 6 mg/kg, Blood efinaconazole concentration, Time 2 hr): 177 ng/mL
- concentration at 4 hr (in vivo; male, beagle, dog, in vivo, 6 mg/kg, Blood efinaconazole concentration, Time 4 hr): 64.9 ng/mL
- concentration at 6 hr (in vivo; male, beagle, dog, in vivo, 6 mg/kg, Blood efinaconazole concentration, Time 6 hr): 27.5 ng/mL
- AUC(0-t) (in vivo; [4]): 1440 ng·h/mL
- Cmax (in vivo; male, beagle, dog, in vivo, iv, 0.5 mg/kg, Cmax): 322 ± 58.6 ng/mL
- Tmax (in vivo; male, beagle, dog, in vivo, iv, 0.5 mg/kg, Tmax): 4.98 min
- Cmax (in vivo; [5]): 925 ± 236 ng/mL
- AUC(0-t) (in vivo; [6]): 1440 ng·h/mL
- Cmax (in vivo; [7]): 904 ng/mL
- HPLC (%) After 1 week ([2]; 65° C.): 99.55%
- Related substances (%) After 1 week ([2]; 65° C.): 0.45%
- HPLC (%) After 2 weeks ([2]; 65° C.): 99.46%
- Related substances (%) After 2 weeks ([2]; 65° C.): 0.54%
- HPLC (%) After 4 weeks ([2]; 65° C.): 98.47%
- Related substances (%) After 4 weeks ([2]; 65° C.): 1.53%
- HPLC (%) After 1 week ([2]; room temp.): 99.73%
- Related substances (%) After 1 week ([2]; room temp.): 0.27%
- HPLC (%) After 2 weeks ([2]; room temp.): 99.61%
- Related substances (%) After 2 weeks ([2]; room temp.): 0.39%
- HPLC (%) After 4 weeks ([2]; room temp.): 99.60%
- Related substances (%) After 4 weeks ([2]; room temp.): 0.40%

- AUCt/AUC∞ (in vivo; beagle dog, fasting, single 6 mg/kg P.O, group Mean (6 animals)): 51.125
- AUC(0-t) (in vivo; [4]): 53500 ng·h/mL
- AUC(0-t) (in vivo; male, beagle, dog, in vivo, po, 6 mg/kg): 53900 ng·h/mL
- AUC(0-inf) (in vivo; male, beagle, dog, in vivo, po, 6 mg/kg, AUC∞): 109000 ng·h/mL
- Cmax (in vivo; [5]): 3670 ng/mL
- AUC(0-t) (in vivo; [6]): 53500 ng·h/mL
- Cmax (in vivo; [7]): 3670 ng/mL
- concentration at 0.053 h (in vivo; male, dog, in vivo, 6 mg/kg, beagle dog, fasting, single 6 mg/kg P.O, group Mean (6 animals), read-out: Blood voriconazole concentration, Time 0.053 hr): 443 ng/mL
- concentration at 0.25 h (in vivo; male, dog, in vivo, 6 mg/kg, beagle dog, fasting, single 6 mg/kg P.O, group Mean (6 animals), read-out: Blood voriconazole concentration, Time 0.25 hr): 2720 ng/mL
- concentration at 0.5 h (in vivo; [8]): 3410 ng/mL
- concentration at 1 h (in vivo; [8]): 3440 ng/mL
- concentration at 2 h (in vivo; [8]): 3090 ng/mL
- concentration at 4 h (in vivo; [8]): 2950 ng/mL
- concentration at 6 h (in vivo; [8]): 2610 ng/mL
- concentration at 8 h (in vivo; [8]): 2460 ng/mL
- concentration at 10 h (in vivo; [8]): 2270 ng/mL
- concentration at 12 h (in vivo; male, dog, in vivo, 6 mg/kg, beagle dog, fasting, single 6 mg/kg P.O, group Mean (6 animals), read-out: Blood voriconazole concentration, Time 12 hr): 2180 ng/mL
- concentration at 24 h (in vivo; male, dog, in vivo, 6 mg/kg, beagle dog, fasting, single 6 mg/kg P.O, group Mean (6 animals), read-out: Blood voriconazole concentration, Time 24 hr): 1500 ng/mL
- concentration at 0.5 h (in vivo; [9]): 3280 ng/mL
- concentration at 1 h (in vivo; [9]): 3280 ng/mL
- concentration at 2 h (in vivo; [9]): 3000 ng/mL
- concentration at 4 h (in vivo; [9]): 2940 ng/mL
- concentration at 6 h (in vivo; [9]): 2660 ng/mL
- concentration at 8 h (in vivo; [9]): 2430 ng/mL
- concentration at 10 h (in vivo; [9]): 2250 ng/mL
- concentration at 12 h (in vivo; male, dog, in vivo, 6 mg/kg, beagle dog, fasting, single 6 mg/kg P.O, individual animals, read-out: Blood voriconazole concentration, Time 12 hr): 2160 ng/mL
- concentration at 24 h (in vivo; male, dog, in vivo, 6 mg/kg, beagle dog, fasting, single 6 mg/kg P.O, individual animals, read-out: Blood voriconazole concentration, Time 24 hr): 1470 ng/mL
- Cmax (in vivo; male, dog, in vivo, po, 6 mg/kg, beagle dog, fasting, single 6 mg/kg P.O, individual animals, read-out: Cmax): 3520 ng/mL
SMILES: C[C@@H](c1ncncc1F)[C@](O)(Cn1cncn1)c1ccc(F)cc1F [Voriconazole]
